Laboratory results taken from the NIST ThermoML archive (doi:10.1021/je2006117).
“And” between values parts separate entries of the source, which are not always exact repeats. Identical values can stand only once. Numbers after ± are expanded uncertainties.

What was measured:
[1] = refractive index (Na D-line) (dimensionless); mn = molality of the nth substance listed, in mol/kg; details: 298.15 K, 101 kPa, Liquid, Standard Abbe refractometry
[2] = mn = molality of the nth substance listed, in mol/kg; details: 298.15 K, 101 kPa, Liquid; for viscosity: Capillary tube (Ostwald / Ubbelohde) method; for mass density: Vibrating tube method
[3] = 298.15 K, Liquid
[4] = refractive index (Na D-line) (dimensionless); details: 298.15 K; 101.33 kPa; Liquid; Standard Abbe refractometry

SMILES: CCC[n+]1ccn(C)c1.[Br-] [1-methyl-3-propylimidazolium bromide] + CN(C)C=O
- refractive index ([1]; m1 = 0.0268): 1.4289 ± 0.0004
- refractive index ([1]; m1 = 0.0444): 1.4296 ± 0.0004
- refractive index ([1]; m1 = 0.0628): 1.4302 ± 0.0004
- refractive index ([1]; m1 = 0.0851): 1.4307 ± 0.0004
- refractive index ([1]; m1 = 0.103): 1.4309 ± 0.0004
- refractive index ([1]; m1 = 0.1256): 1.4312 ± 0.0004
- refractive index ([1]; m1 = 0.1396): 1.4317 ± 0.0004
- refractive index ([1]; m1 = 0.1656): 1.4321 ± 0.0004
- refractive index ([1]; m1 = 0.1826): 1.4328 ± 0.0004
- refractive index ([1]; m1 = 0.2057): 1.4336 ± 0.0004
- viscosity ([2]; m1 = 0.0268): 0.88 ± 0.008 mPa·s
- viscosity ([2]; m1 = 0.0444): 0.889 ± 0.008 mPa·s
- viscosity ([2]; m1 = 0.0628): 0.897 ± 0.008 mPa·s
- viscosity ([2]; m1 = 0.0851): 0.905 ± 0.008 mPa·s
- viscosity ([2]; m1 = 0.103): 0.917 ± 0.008 mPa·s
- viscosity ([2]; m1 = 0.1256): 0.923 ± 0.008 mPa·s
- viscosity ([2]; m1 = 0.1396): 0.936 ± 0.008 mPa·s
- viscosity ([2]; m1 = 0.1656): 0.956 ± 0.008 mPa·s
- viscosity ([2]; m1 = 0.1826): 0.966 ± 0.008 mPa·s
- viscosity ([2]; m1 = 0.2057): 0.975 ± 0.008 mPa·s
- mass density ([2]; m1 = 0.0268): 945.94 ± 0.11 kg/m3
- mass density ([2]; m1 = 0.0444): 947.2 ± 0.1 kg/m3
- mass density ([2]; m1 = 0.0628): 948.49 ± 0.11 kg/m3
- mass density ([2]; m1 = 0.0851): 950.04 ± 0.11 kg/m3
- mass density ([2]; m1 = 0.103): 951.26 ± 0.11 kg/m3
- mass density ([2]; m1 = 0.1256): 952.76 ± 0.11 kg/m3
- mass density ([2]; m1 = 0.1396): 953.7 ± 0.11 kg/m3
- mass density ([2]; m1 = 0.1656): 955.41 ± 0.11 kg/m3
- mass density ([2]; m1 = 0.1826): 956.49 ± 0.11 kg/m3
- mass density ([2]; m1 = 0.2057): 957.93 ± 0.11 kg/m3

SMILES: CCCCCn1cc[n+](C)c1.[Br-] [1-pentyl-3-methylimidazolium bromide] + CN(C)C=O
- refractive index ([1]; m1 = 0.0201): 1.4291 ± 0.0004
- refractive index ([1]; m1 = 0.0409): 1.4297 ± 0.0004
- refractive index ([1]; m1 = 0.0618): 1.4299 ± 0.0004
- refractive index ([1]; m1 = 0.0853): 1.4309 ± 0.0004
- refractive index ([1]; m1 = 0.1009): 1.4312 ± 0.0004
- refractive index ([1]; m1 = 0.1186): 1.4317 ± 0.0004
- refractive index ([1]; m1 = 0.1433): 1.432 ± 0.0004
- refractive index ([1]; m1 = 0.161): 1.4323 ± 0.0004
- refractive index ([1]; m1 = 0.1798): 1.4329 ± 0.0004
- refractive index ([1]; m1 = 0.205): 1.4333 ± 0.0004
- viscosity ([2]; m1 = 0.0201): 0.877 ± 0.008 mPa·s
- viscosity ([2]; m1 = 0.0409): 0.89 ± 0.008 mPa·s
- viscosity ([2]; m1 = 0.0618): 0.899 ± 0.008 mPa·s
- viscosity ([2]; m1 = 0.0853): 0.912 ± 0.008 mPa·s
- viscosity ([2]; m1 = 0.1009): 0.925 ± 0.008 mPa·s
- viscosity ([2]; m1 = 0.1186): 0.942 ± 0.008 mPa·s
- viscosity ([2]; m1 = 0.1433): 0.957 ± 0.008 mPa·s
- viscosity ([2]; m1 = 0.161): 0.965 ± 0.008 mPa·s
- viscosity ([2]; m1 = 0.1798): 0.982 ± 0.008 mPa·s
- viscosity ([2]; m1 = 0.205): 0.991 ± 0.008 mPa·s
- mass density ([2]; m1 = 0.0201): 945.2 ± 0.11 kg/m3
- mass density ([2]; m1 = 0.0409): 946.55 ± 0.11 kg/m3
- mass density ([2]; m1 = 0.0618): 947.88 ± 0.11 kg/m3
- mass density ([2]; m1 = 0.0853): 949.36 ± 0.11 kg/m3
- mass density ([2]; m1 = 0.1009): 950.32 ± 0.11 kg/m3
- mass density ([2]; m1 = 0.1186): 951.39 ± 0.11 kg/m3
- mass density ([2]; m1 = 0.1433): 952.9 ± 0.11 kg/m3
- mass density ([2]; m1 = 0.161): 953.93 ± 0.11 kg/m3
- mass density ([2]; m1 = 0.1798): 955.02 ± 0.11 kg/m3
- mass density ([2]; m1 = 0.205): 956.48 ± 0.11 kg/m3

SMILES: C(=NCCN=Cc1ccccn1)c1ccccn1 [N,N'-bis(2-pyridinylmethylene)-1,2-ethanediamine] + CN(C)C=O
- mass density ([2]; m1 = 0.0401): 945.31 ± 0.8 kg/m3
- mass density ([2]; m1 = 0.0484): 945.37 ± 0.8 kg/m3
- mass density ([2]; m1 = 0.0728): 946.33 ± 0.8 kg/m3
- mass density ([2]; m1 = 0.0941): 946.67 ± 0.8 kg/m3
- mass density ([2]; m1 = 0.1205): 947.34 ± 0.8 kg/m3
- mass density ([2]; m1 = 0.1508): 948.27 ± 0.8 kg/m3
- mass density ([2]; m1 = 0.1553): 949.12 ± 0.8 kg/m3 and 949.25 ± 0.8 kg/m3

SMILES: CN(C)C=O [dimethylformamide]
- mass density ([3]; 101 kPa, Vibrating tube method): 943.88 ± 0.11 kg/m3 and 943.99 ± 0.11 kg/m3
- mass density ([3]; 101.33 kPa): 943.88 ± 0.23 kg/m3
- viscosity ([3]; 101.33 kPa, Capillary tube (Ostwald / Ubbelohde) method): 0.8608 ± 0.0068 mPa·s
- refractive index [4]: 1.4285 ± 0.0004
